Experimental data taken from patent US20040039042A1, “Method of transdermal drug delivery” (priority 2002, published 2004).

Tests used:
[1] = cited from earlier work
[2] = Powdered drug mixed with Ocean® and rubbed into the skin over arthritic joints of patients; format: in vivo, human; details: for side effects normally encountered when taking the drug: patients unable to continue the drugs because of GI toxicity, transdermal application in Ocean®
Description: The present invention is a method for delivering drugs transdermally, especially insoluble drugs. The powdered form of a drug, such as that contained in the capsules of Vioxx® and Celebrex®, was mixed with Ocean® to form a mixture. The mixture was then rubbed into the skin at the needed location, for example, an arthritic joint, by volunteer subjects suffering from arthritis in different joints. The Vioxx® or Celebrex® suspension in Ocean® then penetrated the outer layer of the skin, traveled through the stratum corneum, dermis, and hypodermis, and entered the target tissue. […] Therefore, the present invention provides a method of delivery for NSAIDs, such as Vioxx® and Celebrex®, that can inhibit COX-2 at the inflammation site, without ever entering the GI tract, relieving the patient of any GI toxicity that may be caused by the drug.
In summary, the method of this patent for drug delivery has been tried by a few patients with severe arthritis. These patients were unable to continue using either Vioxx® or Celebrex® because of the severe GI toxicity those drugs caused. The patients opened the capsules of the drugs, mixed the powdered drug with Ocean®, and applied the solution to the skin of the arthritic area.

[3] = Application of Carafate® to root canal wounds or dry sockets in dental patients; format: in vivo, human; details: applied to root canal wounds or dry sockets
Description: Wounds in the mouth are especially prone to infection because of the dark, moist environment, the availability of energy sources from the food that is eaten, and the large numbers of microbes in the mouth. After a root canal or removal of a tooth, a patient is especially prone to infection since the open wound is an idea location for bacteria to settle, and because such a wound is hard to clean.

Compound: CS(=O)(=O)c1ccc(C2=C(c3ccccc3)C(=O)OC2)cc1 [Vioxx®, 4-[4-(methyl-sulfonyl)phenyl]-3-phenyl-2(5H)-furanone]
- solubility in acetone ([1]; acetone): sparingly soluble
- solubility in ethanol ([1]; ethanol): very slightly soluble
- solubility in isopropyl acetate ([1]; isopropyl acetate): slightly soluble
- solubility in methanol ([1]; methanol): slightly soluble
- solubility in octanol ([1]; octanol): practically insoluble
- solubility in water ([1]; water): insoluble
- side effects normally encountered when taking the drug [2]: without the side effects
- relief from arthritis ([2]; patients with severe arthritis, powdered drug from capsules mixed with Ocean®, applied to skin of the arthritic area): relief from their arthritis
- time after application until pain and symptoms are reduced ([2]; suspension in Ocean® rubbed into the skin closest to the affected arthritic joint, volunteer subjects): Within minutes

Compound: Cc1ccc(-c2cc(C(F)(F)F)nn2-c2ccc(S(N)(=O)=O)cc2)cc1 [Celebrex®, 4-[5-(4-methylphenyl)-3-(triflouromethyl)-1 H-pyrazol-1-yl] benzenesulfonamide]
- solubility in aqueous media ([1]; aqueous media): low solubility
- side effects normally encountered when taking the drug [2]: without the side effects

Compound: α-D-glucopyranoside, β-D-frucofuranosyl-, octakis-(hydrogen sulfate), aluminum complex [Carafate®]
- infection of the wound area ([3]; a number of dental patients): inhibits infection
- healing process ([3]; dental patients): hastens the healing process
- pain and swelling in wounds ([3]; dental patients): reduce pain and swelling
